Data published in patent US8309319B2, “Fluorescent probe for measurement of UDP-glucuronosyltransferase” (The University of Tokyo, priority 2007, dated 2012).

Assays:
[1] = target: T1, UGT1A1 (Homo sapiens, UniProt P22309); experiment: Reactivity of fluorescence increasing (d-PeT) type probes with UGT1A1; format: biochemical; design: host or cells: microsomes expressing UGT1A1; conditions: FIG. 4
T1 sequence (P22309 26-533): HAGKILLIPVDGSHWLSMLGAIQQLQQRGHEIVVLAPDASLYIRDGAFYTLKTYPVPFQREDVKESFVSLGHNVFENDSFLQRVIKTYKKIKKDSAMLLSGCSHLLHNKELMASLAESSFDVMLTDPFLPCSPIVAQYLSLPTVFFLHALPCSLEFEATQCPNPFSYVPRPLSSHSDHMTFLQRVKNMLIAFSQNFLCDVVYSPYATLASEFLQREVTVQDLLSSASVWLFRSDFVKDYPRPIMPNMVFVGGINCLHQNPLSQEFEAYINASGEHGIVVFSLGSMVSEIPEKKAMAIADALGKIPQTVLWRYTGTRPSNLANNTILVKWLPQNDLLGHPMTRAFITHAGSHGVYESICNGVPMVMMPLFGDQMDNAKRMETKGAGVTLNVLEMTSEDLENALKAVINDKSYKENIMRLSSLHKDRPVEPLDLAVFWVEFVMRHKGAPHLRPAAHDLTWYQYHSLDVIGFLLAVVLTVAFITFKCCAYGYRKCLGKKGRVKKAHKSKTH
Method: The fluorescein derivatives of fluorescence decreasing type, of which fluorescence is decreased by a reaction with UGT, were obtained in Examples 1 and 2. Further researches were conducted in order to provide fluorescein derivatives of fluorescence increasing type of which fluorescence is increased by a reaction with UGT. Functionally, the structure of fluorescein can be recognized as two parts having different functions, i.e. the benzene ring moiety and the xanthene ring moiety. By appropriately choosing substituents on the benzene ring moiety among them, fluorescence thereof can be controlled by using PeT (J. Am. Chem. Soc., 123, pp. 2530-2536, 2001). […] Therefore, it is considered that there can be developed a fluorescence increasing type fluorescein derivative of which fluorescence is quenched by PeT before the reaction with UGT when the fluorescein derivative is a phenolate type, and fluorescence is emitted after the reaction with UGT when the fluorescein derivative is an O-glycoside type, by appropriately choosing the substituents on the benzene ring moiety (J. Am. Chem. Soc., 126, pp. 14079-14085, 2004). From such a point of view, 6-carboxyfluorescein dimethyl ester and 5,6-dicarboxyfluorescein trimethyl ester were designed as fluorescence increasing (d-PeT) type fluorescein derivatives, and reactivity thereof with UGT1A1 was confirmed.

[2] = target: T1, UGT1A1; experiment: Reactivity with UGT1A1, fluorescence method (decrease in fluorescence intensity); conditions: 37° C.
[3] = target: T1, UGT1A1; experiment: Reactivity with UGT1A1, absorbance method (decrease of absorbance); format: biochemical; design: host or cells: microsomes expressing UGT1A1; conditions: probe 10 μM, absorbance at 480 to 510 nm; compared with 2-Me-4-OMe-TG
[4] = probe 1 μM, excitation 480 to 510 nm

## COC(=O)c1cc(C(=O)OC)c(-c2c3ccc(=O)cc-3oc3cc(O)ccc23)cc1C(=O)OC [5,6-dicarboxyfluorescein trimethyl ester]
[1]
  change of fluorescence intensity with passage of the reaction time: increase of fluorescence intensity was observed

## COC(=O)c1ccc(C(=O)OC)c(-c2c3ccc(=O)cc-3oc3cc(O)ccc23)c1 [6-carboxyfluorescein dimethyl ester]
[1]
  change of fluorescence intensity with passage of the reaction time: increase of fluorescence intensity was observed

## Nc1ccccc1-c1c2ccc(=O)cc-2oc2cc(O)ccc12 [Derivative 6]
[2]; UGT1A1 microsomes 0.1 mg/mL, UDP-glucuronic acid 2 mM, probe 1 μM (fluorescence) or 10 μM (absorbance)
  reactivity with UGT1A1: weak

## COc1ccc(-c2c3ccc(=O)cc-3oc3cc(O)ccc23)c(C)c1 [Derivative 11]
[2]; [4]
  decrease of fluorescence intensity to: ≤ 0.1%
  decrease rate of fluorescence: high decrease rate of fluorescence

## Cc1ccc(-c2c3ccc(=O)cc-3oc3cc(O)ccc23)c([N+](=O)[O-])c1 [Derivative 15]
[3]
  decrease rate of absorbance: higher decrease rate of absorbance
